Key:
Type in all cases: in vivo
[1] = tested on: velvetleaf (Abutilon theophrasti Medik.); experiment: Example 3: pot test, foliar treatment of velvetleaf, pyroxsulam versus penoxsulam
Protocol: (§1) Upland field soil was put into a 1/1,000,000 hectare pot, and seeds of velvetleaf (Abutilon theophrasti Medik.) were sown. […] Further, the growth inhibition rate (expected value) was calculated in accordance with the Colby's formula.

[2] = tested on: velvetleaf (Abutilon theophrasti Medik.); experiment: Example 1: pot test, foliar treatment of velvetleaf, visual growth inhibition rate; settings: 12th day after foliar treatment
Protocol: as §1

[3] = tested on: velvetleaf (Abutilon theophrasti Medik.); experiment: Example 2: pot test, foliar treatment of velvetleaf, visual growth inhibition rate; settings: 15th day after foliar treatment
Protocol: as §1

SMILES: COc1cnc(OC)n2nc(NS(=O)(=O)c3c(OCC(F)F)cccc3C(F)(F)F)nc12 [Penoxsulam, penoxsulam]
- inhibition at 0.5 g/ha ([1]; Abutilon theophrasti, dose 0.5 g/ha, 8th day after foliar treatment, read-out: Growth inhibition rate (%) Measured value (A)): 0%
- inhibition at […] ([1]; Abutilon theophrasti, dose 0.75 g/ha, 8th day after foliar treatment, read-out: Growth inhibition rate (%) Measured value (A)): 0%
- inhibition at 3 g/ha ([1]; Abutilon theophrasti, dose 3 g/ha, 8th day after foliar treatment, read-out: Growth inhibition rate (%) Measured value (A)): 37%
- grow inhibition compared with expected (Colby) ([1]; combined with tolpyralate, summary in words of Table 3, 8th day): a grow inhibition rate more than expected was not obtained

SMILES: COc1cc(OC)n2nc(NS(=O)(=O)c3c(C(F)(F)F)ccnc3OC)nc2n1 [Pyroxsulam, pyroxsulam]
- Growth inhibition rate (%) Measured value (A) ([2]; dose 0.5 g/ha): 2%
- Growth inhibition rate (%) Measured value (A) ([2]; dose 1.5 g/ha): 17%
- Growth inhibition rate (%) Measured value (A) ([2]; dose 2.25 g/ha): 25%
- Growth inhibition rate (%) Measured value (A) ([2]; dose 3 g/ha): 27%
- Growth inhibition rate (%) Measured value (A) ([1]; dose 0.5 g/ha, 8th day after foliar treatment): 0%
- Growth inhibition rate (%) Measured value (A) ([1]; dose 3 g/ha, 8th day after foliar treatment): 32%
- Growth inhibition rate (%) Measured value (A) ([3]; dose 0.125 g/ha): 0%
- Growth inhibition rate (%) Measured value (A) ([3]; dose 0.25 g/ha): 0%
- Growth inhibition rate (%) Measured value (A) ([3]; dose 0.5 g/ha): 0%
- Growth inhibition rate (%) Measured value (A) ([3]; dose 3 g/ha): 20%
- Growth inhibition rate (%) Measured value (A) ([3]; dose 4 g/ha): 30%
- Growth inhibition rate (%) Measured value (A) ([3]; dose 5 g/ha): 33%
- Growth inhibition rate (%) Measured value (A) ([3]; dose 6 g/ha): 35%

SMILES: CCn1ncc(C(=O)c2ccc(S(C)(=O)=O)c(OCCOC)c2C)c1OC(C)OC(=O)OC (stereo not drawn) [Tolpyralate, tolpyralate]
- Growth inhibition rate (%) Measured value (A) ([2]; dose 2.5 g/ha): 20%
- Growth inhibition rate (%) Measured value (A) ([2]; dose 3.75 g/ha): 27%
- Growth inhibition rate (%) Measured value (A) ([1]; dose 2.5 g/ha, 8th day after foliar treatment): 10%
- Growth inhibition rate (%) Measured value (A) ([3]; dose 2.5 g/ha): 37%

Source: patent US12239133B2, “Herbicidal composition” (ISHIHARA SANGYO KAISHA, LTD., priority 2019, dated 2025)
